How the values were obtained:
Test in all cases: relative viability (nuclei count vs DMSO), 5 days (fraction); higher = more cells survive
Selumetinib + Decitabine = compound: Cn1cnc2c(F)c(Nc3ccc(Br)cc3Cl)c(C(=O)NOCCO)cc21 [Selumetinib] + Nc1ncn([C@H]2C[C@H](O)[C@@H](CO)O2)c(=O)n1 [Decitabine] (partner 2 µM)
Method in brief: (§1)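 Values are medians from duplicate plates. Each reflects relative viability, defined as the nuclei count of treated wells over that of vehicle wells. Lung cancer cell lines in 1536-well plates were pin-tool dosed one day after seeding with one drug alone or with a fixed anchor-drug dose plus five library-drug doses (not always all listed) in √10 steps, then fixed, stained and imaged at 4× after 5 days.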

Selumetinib + Trametinib = compound: Cn1cnc2c(F)c(Nc3ccc(Br)cc3Cl)c(C(=O)NOCCO)cc21 [Selumetinib] + CC(=O)Nc1cccc(-n2c(=O)n(C3CC3)c(=O)c3c(Nc4ccc(I)cc4F)n(C)c(=O)c(C)c32)c1 [Trametinib] (partner 0.02 µM)
Method in brief: as §1

Selumetinib + Linsitinib = compound: Cn1cnc2c(F)c(Nc3ccc(Br)cc3Cl)c(C(=O)NOCCO)cc21 [Selumetinib] + C[C@]1(O)C[C@@H](c2nc(-c3ccc4ccc(-c5ccccc5)nc4c3)c3c(N)nccn32)C1 [Linsitinib] (partner 1 µM)
Method in brief: as §1

Venetoclax + Luminespib = compound: CC1(C)CCC(CN2CCN(c3ccc(C(=O)NS(=O)(=O)c4ccc(NCC5CCOCC5)c([N+](=O)[O-])c4)c(Oc4cnc5[nH]ccc5c4)c3)CC2)=C(c2ccc(Cl)cc2)C1 [Venetoclax] + CCNC(=O)c1noc(-c2cc(C(C)C)c(O)cc2O)c1-c1ccc(CN2CCOCC2)cc1 [Luminespib] (partner 0.01 µM)
Method in brief: as §1

Cell Line	relative viability (Selumetinib + Decitabine; first compound 0.02 µM)	relative viability (Selumetinib + Decitabine; first compound 0.06325 µM)	relative viability (Selumetinib + Decitabine; first compound 0.2 µM)	relative viability (Selumetinib + Decitabine; first compound 0.6325 µM)	relative viability (Selumetinib + Trametinib; first compound 0.02 µM)	relative viability (Selumetinib + Trametinib; first compound 0.06325 µM)	relative viability (Selumetinib + Trametinib; first compound 0.2 µM)	relative viability (Selumetinib + Trametinib; first compound 0.6325 µM)	relative viability (Selumetinib + Linsitinib; first compound 0.02 µM)	relative viability (Selumetinib + Linsitinib; first compound 0.06325 µM)	relative viability (Selumetinib + Linsitinib; first compound 0.2 µM)	relative viability (Selumetinib + Linsitinib; first compound 0.6325 µM)	relative viability (Venetoclax + Luminespib; first compound 0.01 µM)	relative viability (Venetoclax + Luminespib; first compound 0.03162 µM)	relative viability (Venetoclax + Luminespib; first compound 0.1 µM)	relative viability (Venetoclax + Luminespib; first compound 0.3162 µM)	relative viability (Venetoclax + Luminespib; first compound 1 µM)
201T	0.795	0.817	0.786	0.824	0.777	0.698	0.723	0.735	0.987	0.978	0.949	0.932	1.01	1.08	1.04	0.996	1.05
A549	0.305	0.227	0.198	0.267	–	–	–	–	0.489	0.436	0.363	0.349	–	–	–	–	–
A-427	0.537	0.575	0.53	0.55	0.731	0.781	0.812	0.794	1.16	1.09	1.02	0.925	0.903	0.847	0.889	1.07	0.891
ABC-1	1.01	1.08	1.08	1.02	–	–	–	–	0.794	0.678	0.607	0.614	0.553	0.53	0.689	0.431	0.912
BEN	0.704	0.733	0.714	0.731	1.06	1.07	1.14	1	0.879	0.898	0.745	0.8	0.343	0.48	0.401	0.192	0.513
CAL-12T	–	–	–	–	0.282	0.343	0.285	0.298	0.821	0.762	0.663	0.588	0.353	0.254	0.375	0.24	0.412
COR-L23	0.438	0.418	0.451	0.444	0.555	0.469	0.586	0.511	0.945	0.88	0.864	0.787	0.469	0.669	0.728	0.71	0.651
COR-L 105	0.637	0.507	0.452	0.45	0.435	0.427	0.345	0.468	1	0.828	0.606	0.623	1.03	0.61	0.522	0.712	0.625
Calu-6	–	–	–	–	–	–	–	–	1.03	0.77	0.522	0.362	–	–	–	–	–
ChaGo-K-1	0.544	0.539	0.48	0.532	0.908	0.891	0.897	0.92	–	–	–	–	0.459	0.709	0.637	0.628	0.59
EBC-1	–	–	–	–	–	–	–	–	0.917	0.844	0.933	0.518	–	–	–	–	–
EKVX	0.339	0.29	0.37	0.339	0.308	0.325	0.344	0.32	0.864	0.912	0.749	0.711	0.87	0.89	0.923	0.833	0.884
EMC-BAC-2	0.991	0.976	0.997	0.942	0.909	0.833	0.937	0.774	0.732	0.668	0.707	0.743	1.09	1.16	1.23	1.21	1.1
EPLC-272H	0.364	0.339	0.346	0.294	0.275	0.277	0.263	0.259	0.968	1.09	0.848	1.06	0.64	0.368	0.212	0.171	0.367
H3255	0.647	0.649	0.557	0.614	0.586	0.583	0.601	0.54	0.974	0.899	0.918	0.825	0.915	0.993	0.846	0.947	0.822
HARA	0.691	0.502	0.602	0.483	0.531	0.596	0.787	0.448	0.916	0.837	0.84	0.334	0.814	0.657	0.751	0.913	0.823
HCC-15	0.556	0.449	0.438	0.392	0.403	0.426	0.332	0.333	0.674	0.502	0.351	0.232	0.479	0.318	0.308	0.316	0.181
HCC-44	1.03	0.982	0.962	0.942	1.03	0.993	0.999	1.14	0.701	0.639	0.539	0.575	1.05	0.946	1.13	1.07	1
HCC-78	0.819	0.759	0.779	0.685	0.785	0.643	0.792	0.698	0.446	0.402	0.419	0.378	–	–	–	–	–
HCC-366	0.353	0.36	0.315	0.309	0.365	0.316	0.332	0.329	0.525	0.406	0.249	0.229	–	–	–	–	–
HCC-827	0.362	0.317	0.351	0.448	0.528	0.554	0.541	0.549	0.848	0.929	0.931	0.894	0.657	0.641	0.237	0.509	0.694
HOP-62	0.164	0.278	0.238	0.232	0.372	0.358	0.404	0.332	0.98	1.05	0.93	0.469	0.945	0.892	0.926	0.8	0.842
IA-LM	–	–	–	–	–	–	–	–	0.406	0.296	0.295	0.254	–	–	–	–	–

Cell Line	relative viability (Selumetinib + Decitabine; first compound 0.02 µM)	relative viability (Selumetinib + Decitabine; first compound 0.06325 µM)	relative viability (Selumetinib + Decitabine; first compound 0.2 µM)	relative viability (Selumetinib + Decitabine; first compound 0.6325 µM)	relative viability (Selumetinib + Trametinib; first compound 0.02 µM)	relative viability (Selumetinib + Trametinib; first compound 0.06325 µM)	relative viability (Selumetinib + Trametinib; first compound 0.2 µM)	relative viability (Selumetinib + Trametinib; first compound 0.6325 µM)	relative viability (Selumetinib + Linsitinib; first compound 0.02 µM)	relative viability (Selumetinib + Linsitinib; first compound 0.06325 µM)	relative viability (Selumetinib + Linsitinib; first compound 0.2 µM)	relative viability (Selumetinib + Linsitinib; first compound 0.6325 µM)	relative viability (Venetoclax + Luminespib; first compound 0.01 µM)	relative viability (Venetoclax + Luminespib; first compound 0.03162 µM)	relative viability (Venetoclax + Luminespib; first compound 0.1 µM)	relative viability (Venetoclax + Luminespib; first compound 0.3162 µM)	relative viability (Venetoclax + Luminespib; first compound 1 µM)
LC-2-ad	0.73	0.817	0.781	0.776	0.954	0.88	0.822	0.9	0.824	0.801	0.653	0.9	1.05	0.962	0.981	1.01	0.898
LCLC-97TM1	0.258	0.217	0.296	0.197	0.195	0.171	0.201	0.19	0.227	0.193	0.207	0.2	0.709	0.397	0.717	0.727	0.771
LCLC-103H	0.697	0.715	0.71	0.706	0.635	0.707	0.66	0.672	1.04	0.952	0.804	0.968	0.969	0.999	0.905	1.02	0.902
LK-2	0.305	0.278	0.404	0.399	0.834	0.753	0.844	0.69	0.466	0.551	0.587	0.312	0.186	0.204	0.185	0.157	0.182
LOU-NH91	0.782	0.777	0.723	0.751	0.773	0.761	0.818	0.824	0.773	0.846	0.783	0.727	0.271	0.374	0.345	0.336	0.326
LU99A	0.982	0.905	0.91	0.759	0.505	0.649	0.512	0.481	0.49	0.567	0.511	0.566	0.232	0.256	0.262	0.227	0.37
LXF-289	0.356	0.418	0.36	0.437	0.717	0.616	0.673	0.701	1	0.853	0.745	0.719	0.787	0.7	0.61	0.663	0.472
NCI-H23	0.324	0.268	0.319	0.302	0.4	0.402	0.322	0.331	0.585	0.53	0.43	0.369	0.222	0.226	0.215	0.228	0.22
NCI-H322M	0.722	0.71	0.598	0.548	0.458	0.508	0.496	0.512	0.717	0.608	0.67	0.626	1	0.842	0.814	0.944	0.941
NCI-H358	0.194	0.181	0.193	0.158	0.125	0.134	0.121	0.11	0.472	0.512	0.424	0.365	0.402	0.313	0.245	0.579	0.321
NCI-H441	0.244	0.224	0.207	0.268	0.457	0.429	0.573	0.455	0.543	0.46	0.491	0.435	0.337	0.372	0.434	0.299	0.427
NCI-H460	0.432	0.484	0.402	0.326	0.115	0.139	0.138	0.104	0.666	0.429	0.262	0.214	0.0354	0.0317	0.0311	0.0401	0.0316
NCI-H522	0.837	0.585	0.692	0.7	0.859	0.727	0.757	0.888	–	–	–	–	1.14	1.21	1.04	–	1.19
NCI-H1299	–	–	–	–	–	–	–	–	0.996	0.833	0.88	0.677	–	–	–	–	–
NCI-H1563	–	–	–	–	–	–	–	–	1.15	1.2	1.11	1.11	0.548	0.546	0.499	0.447	0.577
NCI-H1623	–	–	–	–	–	–	–	–	–	–	–	–	0.545	0.502	0.566	0.6	0.464
NCI-H1648	–	0.447	0.477	0.673	–	0.503	0.443	0.499	–	–	–	–	–	–	–	–	–
NCI-H1650	0.392	0.353	0.424	0.39	0.522	0.458	0.531	0.577	–	–	–	–	0.196	0.202	0.2	0.189	0.207
NCI-H1703	–	–	–	–	–	–	–	–	0.75	0.637	0.67	0.824	–	–	–	–	–
NCI-H2170	0.469	0.488	0.452	0.439	0.934	0.957	0.853	0.921	–	–	–	–	0.589	0.427	0.766	0.737	0.689
NCI-H2228	–	–	–	–	0.513	0.328	0.554	0.393	0.605	0.628	0.671	0.359	0.162	0.158	0.15	0.128	0.147
NCI-H2342	0.778	0.716	0.727	0.638	0.838	0.835	0.789	0.975	–	–	–	–	0.807	0.737	0.635	0.765	0.719
SW 900	0.43	0.409	0.441	0.504	0.68	0.764	0.875	0.675	–	–	–	–	0.163	0.153	0.197	0.168	0.182
